Assay results taken from ChEMBL document CHEMBL1201862, “PubChem BioAssay data set” (2004).
Activity calls are given as the source filed them.

How the values were obtained:
HEK293 [1] = assay: cells; details: Homo sapiens
[2] = molecular target: T1, High affinity choline transporter 1 (Homo sapiens, UniProt Q9GZV3); assay: human choline transporter blockers, potency – cell-based, 10-point CRC, membrane potential dye, dose response (AID 588401); assay type: functional;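 further: membrane potential dye fluorescence of choline-evoked depolarization via CHT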
T1 sequence (Q9GZV3 whole entry): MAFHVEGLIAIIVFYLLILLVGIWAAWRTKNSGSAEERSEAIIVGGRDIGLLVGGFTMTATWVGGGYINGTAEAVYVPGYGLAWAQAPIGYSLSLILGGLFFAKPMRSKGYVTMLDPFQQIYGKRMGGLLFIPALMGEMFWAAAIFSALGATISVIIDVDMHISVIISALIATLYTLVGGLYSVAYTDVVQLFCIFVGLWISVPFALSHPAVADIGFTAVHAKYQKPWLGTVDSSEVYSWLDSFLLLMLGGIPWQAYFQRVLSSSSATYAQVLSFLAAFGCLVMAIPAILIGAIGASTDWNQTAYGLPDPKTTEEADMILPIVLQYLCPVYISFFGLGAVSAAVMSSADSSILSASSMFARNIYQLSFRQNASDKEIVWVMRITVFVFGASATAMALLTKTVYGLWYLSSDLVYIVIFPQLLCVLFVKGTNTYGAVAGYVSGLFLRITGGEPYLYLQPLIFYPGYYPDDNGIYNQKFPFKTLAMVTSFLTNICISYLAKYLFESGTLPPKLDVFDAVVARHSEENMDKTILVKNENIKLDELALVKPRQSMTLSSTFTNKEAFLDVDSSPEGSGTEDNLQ

[3] = molecular target: Luciferin 4-monooxygenase (Photinus pyralis, UniProt P08659); assay: inhibition of purified Photinus pyralis luciferase – biochemical, luminescence, dose response (AID 1891)
Sequence of Luciferin 4-monooxygenase (P08659 whole entry): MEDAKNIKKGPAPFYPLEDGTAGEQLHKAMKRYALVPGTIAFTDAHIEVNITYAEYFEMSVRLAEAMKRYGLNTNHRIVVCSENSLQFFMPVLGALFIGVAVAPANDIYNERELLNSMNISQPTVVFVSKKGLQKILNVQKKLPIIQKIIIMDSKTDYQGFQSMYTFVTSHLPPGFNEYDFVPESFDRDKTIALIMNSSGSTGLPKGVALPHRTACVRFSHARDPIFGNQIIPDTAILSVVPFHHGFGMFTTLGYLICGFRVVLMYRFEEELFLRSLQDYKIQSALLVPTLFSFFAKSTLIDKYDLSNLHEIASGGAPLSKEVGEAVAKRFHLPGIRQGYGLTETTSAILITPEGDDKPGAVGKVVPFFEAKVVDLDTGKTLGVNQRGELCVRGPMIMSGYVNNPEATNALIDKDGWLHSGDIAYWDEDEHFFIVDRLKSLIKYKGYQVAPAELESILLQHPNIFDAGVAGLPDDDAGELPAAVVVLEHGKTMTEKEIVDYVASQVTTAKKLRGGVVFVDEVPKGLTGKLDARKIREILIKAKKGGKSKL

[4] = molecular target: T1, High affinity choline transporter 1; assay: human choline transporter blockers, potency – cell-based, 5-point CRC, membrane potential dye, dose response (AID 504840); assay type: functional
HEK293 [5] = assay: cells; details: Homo sapiens; remark: listed apart in the source
[6] = Luminescence Cell-Based Dose Confirmation HTS to Identify Inhibitors of Platelet Dense Granule Release. [Related pubchem assays: 1663 (Primary HTS), 1678 (Summary of Project)]; assay type: functional

## C=C[C@@]1(C)CC(=O)[C@]2(O)[C@@]3(C)[C@@H](O)CCC(C)(C)[C@@H]3[C@H](OC(C)=O)[C@H](O)[C@@]2(C)O1
HEK293 [1]
  EC50: > 59.7 µM (inactive)
[2]
  IC50: 0.815 µM (active)
[3]
  EC50: > 112 µM (not active)
[4]
  IC50: 1.52 µM (active)
HEK293 [5]
  EC50: > 59.7 µM (inactive)
[6]
  EC50: 4.26 µM (active)
